pEC50: −log10 of the molar value. Where only a bound is given, the exact number is not on record here.

As a reminder, the pEC50 is the negative decadic logarithm of the EC50, by convention in mol/L.

Holding throughout (format): cell-based
In experiment [1] the target is T1, hAT1R (Homo sapiens, UniProt P30556).
T1 sequence (P30556 1-359): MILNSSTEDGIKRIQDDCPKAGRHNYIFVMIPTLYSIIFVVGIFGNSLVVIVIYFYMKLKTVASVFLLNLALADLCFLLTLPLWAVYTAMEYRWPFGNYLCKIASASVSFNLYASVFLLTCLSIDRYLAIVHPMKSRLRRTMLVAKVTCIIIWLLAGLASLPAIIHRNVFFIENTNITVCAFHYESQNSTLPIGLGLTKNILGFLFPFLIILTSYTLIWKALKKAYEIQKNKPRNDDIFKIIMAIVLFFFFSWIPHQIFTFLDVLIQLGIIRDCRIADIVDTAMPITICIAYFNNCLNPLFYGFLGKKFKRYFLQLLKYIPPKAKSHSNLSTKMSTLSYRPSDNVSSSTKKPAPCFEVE
The experiment in a line: BRET β-arrestin2 biosensor assay, higher receptor expression (hAT1R 5 ng/well), HEK293 cells. Particulars: for pEC50: High AT1R Expression.

In experiment [2] the target is T2, AGTR1 (Homo sapiens, UniProt P30556).
T2 construct: host or cells: Pathunter CHO-K1 AGTR1 β-arrestin cell line (CHO-K1)
T2 sequence (P30556 1-359): T1 sequence (P30556 1-359)
The experiment in a line: DiscoveRx IP1 accumulation assay (HTRF), agonist mode, Pathunter CHO-K1 AGTR1 β-arrestin cell line. The conditions noted are these: for pEC50: read-out: IP-1 EC50. Here is the method: In one aspect of the invention, signaling bias of compounds was assessed by comparing the relative activity of compounds to activate both the β-arrestin and Gq signaling pathways. In order to confirm signaling bias, compounds were studied in two different assay formats.
DiscoveRx β-arrestin2 Recruitment and IP1 Assays
Gq activation can be assessed by measuring the accumulation of inositol phosphates (e.g. IP3, IP1) that are liberated following activation of phospholipase C by Gq (Thomsen, Frazer et al. 2005). In the current invention we have utilized the DiscoveRx Pathunter CHO-K1 AGTR1 β-arrestin cell line to also measure IP1 accumulation in response to compounds. IP1 accumulation was measured in both agonist and antagonist modes. In agonist mode, cells are plated as above 14-16 hours before the experiment. The medium is then removed and compounds at varying concentrations added in a final volume of 20 μl. The cells are incubated at 37° C. for 90 min. IP1 accumulation detected using a commercial HTRF assay according to manufacturer's instructions (Cisbio, Bedford, MA). Specifically, 4 μl of D2-conjugate solution (diluted 1:20 in Cisbio HTRF assay buffer) is added to each well, followed by the addition of 4 μl of anti-IP1 cryptate diluted 1:20 in HTRF assay buffer and the plates incubated for 20 min at room temperature. 14 μl from each well is measured using an Envision multi-label reader and data processed using Toolset for Runmaster QCMulti. Concentration-response curves are fitted and EC50s (agonist mode) and IC50s (antagonist mode) estimated using a 4-parameter logistic equation. Compound activities are reported as a relative percentage to the maximal effect of All in the assays.
A general note: In TR-FRET formats the signal depends on donor and acceptor labels being close together.

The target of experiment [3] is T2, AGTR1. The experiment in a line: DiscoveRx β-arrestin2 recruitment assay (enzyme complementation, Pathunter CHO-K1 AGTR1 β-arrestin cell line). The conditions noted are these: DiscoveRx β-arrestin2 recruitment; for DiscoveRx β-arrestin2 Ymax (%): maximal response. Here is the method: In one aspect of the invention, signaling bias of compounds was assessed by comparing the relative activity of compounds to activate both the β-arrestin and Gq signaling pathways. In order to confirm signaling bias, compounds were studied in two different assay formats. DiscoveRx β-arrestin2 Recruitment and IP1 Assays β-arrestin2 recruitment to activated receptors can be assessed using an enzyme complementation method (Zhao, Jones et al. 2008). […] Cells (5000/well) were plated into 1536 well plates (Cellocoat plates, Greiner Bio One, Monroe, NC) 14-16 hours before each experiment in 20 μl DMEM/F12 medium (Thermo-Fisher Scientific, Carlsbad, CA) containing heat-inactivated 1% fetal bovine serum. Subsequently, the compounds of interest were added at varying concentrations to the wells in a volume of 200 nl and the cells incubated for 90 min at 37° C. The detection reagent (10 μl) was added to each well and the plates incubated at room temperature for 1 hour before measurement of chemiluminescence using an EnVision Multilabel Reader (Perkin-Elmer, Waltham, MA). The data are processed using Toolset for Runmaster QCMulti. Concentration-response curves are fitted and EC50s (agonist mode) and IC50s (antagonist mode) estimated using a 4-parameter logistic equation. Compound activities are reported as a relative percentage to the maximal effect of All in the assays.
Background: Recruitment of arrestin is a read-out of receptor activation apart from second messengers.

Turning to `CCc1nc2c(C)cc(C)nc2n1Cc1ccc(-c2cc(-c3cccc4cnccc34)ccc2-c2nn[nH]n2)cc1` [Example 16], in experiment [1], the “BRET β-Arrestin2 High AT1R Expression Ymax (%)” value stood at 69.9% and the pEC50 was 7.61. Besides, in experiment [2], the “IP-1 Ymax (%)” value is 3.6% and the pEC50 is 7.26. Moreover, in experiment [3], the pEC50 was 7.22 and the “DiscoveRx β-arrestin2 Ymax (%)” value came to 17.1%.

For `CCCCC1=NC2(CCCC2)C(=O)N1Cc1ccc(-c2cc(-c3cscn3)ccc2-c2nn[nH]n2)cc1` [Example 137], the “BRET β-Arrestin2 High AT1R Expression Ymax (%)” value in experiment [1] turned out to be 12.2%. The results for the pEC50 in experiment [1], in experiment [2] and in experiment [3] were 7.45, under 4.00 and under 4.00, respectively.

In the case of `CCCCC1=NC2(CCCC2)C(=O)N1Cc1ccc(-c2cc(-c3cccc(F)c3F)ccc2-c2nn[nH]n2)cc1` [Example 135], the “BRET β-Arrestin2 High AT1R Expression Ymax (%)” value in experiment [1] was 94.8%. The pEC50 in experiment [1] is 7.54; in experiment [2] it was under 4.00; in experiment [3], 7.86. Moreover, the “DiscoveRx β-arrestin2 Ymax (%)” value in experiment [3] is on record as 38.6%.

Turning to `CCCCC1=NC2(CCCC2)C(=O)N1Cc1ccc(-c2cc(-c3ccc(OC(F)F)cn3)ccc2-c2nn[nH]n2)cc1` [Example 136], in experiment [1], the “BRET β-Arrestin2 High AT1R Expression Ymax (%)” value is 94.2% and the pEC50 is 8.00. In addition, in experiment [2], the “IP-1 Ymax (%)” value worked out at 18.1% and the pEC50 was 7.84. Also, in experiment [3], the pEC50 is 8.31 and the “DiscoveRx β-arrestin2 Ymax (%)” value was determined as 43.2%.

Consider `CCCCC1=NC2(CCCC2)C(=O)N1Cc1ccc(-c2cc(N3CCC[C@H](C)C3)ccc2-c2nn[nH]n2)cc1` [Example 104], for which, in experiment [1], the “BRET β-Arrestin2 High AT1R Expression Ymax (%)” value worked out at 23.4% and the negative-log EC50 (pEC50) was 6.46. For the same molecule, the pEC50 in experiment [2] is under 4.00. Besides, in experiment [3], the pEC50 is 6.94 and the “DiscoveRx β-arrestin2 Ymax (%)” value came to 9.1%.

Regarding `CCCCC1=NC2(CCCC2)C(=O)N1Cc1ccc(-c2cc(-c3ccsn3)ccc2-c2nn[nH]n2)cc1` [Example 123, 2-butyl-3-((5′-(isothiazol-3-yl)-2′-(2H-tetrazol-5-yl)-[1,1′-biphenyl]-4-yl)methyl)-1,3-diazaspiro[4.4]non-1-en-4-one], in experiment [1], the “BRET β-Arrestin2 High AT1R Expression Ymax (%)” value stood at 20.6% and the pEC50 is 7.19. The pEC50 in experiment [2] was under 4.00. In addition, in experiment [3], the pEC50 is 8.01 and the “DiscoveRx β-arrestin2 Ymax (%)” value turned out to be 4.9%.

Consider `CCc1nc2c(C)cc(C)nc2n1Cc1ccc(-c2cc(OCc3ccccc3)ccc2-c2nnn[nH]2)cc1` [Example 212, 3-((5′-(Benzyloxy)-2′-(1H-tetrazol-5-yl)-[1,1′-biphenyl]-4-yl)methyl)-2-ethyl-5,7-dimethyl-3H-imidazo[4,5-b]pyridine], for which, in experiment [1], the “BRET β-Arrestin2 High AT1R Expression Ymax (%)” value was 29.2% and the pEC50 is 7.97. Further, in experiment [2], the “IP-1 Ymax (%)” value was determined as 3.8% and the pEC50 was 7.70. In addition, in experiment [3], the pEC50 is 8.00 and the “DiscoveRx β-arrestin2 Ymax (%)” value came out at 11.2%.

As to `CCCCC1=NC2(CCCC2)C(=O)N1Cc1ccc(-c2cc(N3CCC(C)CC3)ccc2-c2nn[nH]n2)cc1` [Example 100], in experiment [1], the “BRET β-Arrestin2 High AT1R Expression Ymax (%)” value was found to be 19.4% and the pEC50 is 6.81. Also, in experiment [2], the “IP-1 Ymax (%)” value is on record as 6.1% and the pEC50 is 7.30. In addition, in experiment [3], the pEC50 was 7.54 and the “DiscoveRx β-arrestin2 Ymax (%)” value worked out at 12.7%.

Turning to `CCc1nc2c(C)cc(C)nc2n1Cc1ccc(-c2cc(N3CCC(F)(F)CC3)ccc2-c2nn[nH]n2)cc1` [Example 82, 3-((5′-(4,4-difluoropiperidin-1-yl)-2′-(2H-tetrazol-5-yl)-[1,1′-biphenyl]-4-yl)methyl)-2-ethyl-5,7-dimethyl-3H-imidazo[4,5-b]pyridine], in experiment [1], the “BRET β-Arrestin2 High AT1R Expression Ymax (%)” value is reported as 49.6% and the pEC50 was 6.85. Further, in experiment [2], the pEC50 was under 4.00. Besides, in experiment [3], the pEC50 was 7.02 and the “DiscoveRx β-arrestin2 Ymax (%)” value was 16.8%.

Regarding `CCCCC1=NC2(CCCC2)C(=O)N1Cc1ccc(-c2cc(-c3ccc(OC(F)(F)F)cc3)ccc2-c2nn[nH]n2)cc1` [Example 134], in experiment [1], the “BRET β-Arrestin2 High AT1R Expression Ymax (%)” value was determined as 77.0% and the pEC50 is 6.80. Moreover, in experiment [2], the “IP-1 Ymax (%)” value is recorded as 4.0% and the pEC50 was 6.99. In experiment [3], the pEC50 is 7.13 and the “DiscoveRx β-arrestin2 Ymax (%)” value was 40.3%.

As for `CCCCC1=NC2(CCCC2)C(=O)N1Cc1ccc(-c2cc(-c3ccccc3)ccc2C(=O)O)cc1` [Example 145, 4″-((2-butyl-4-oxo-1,3-diazaspiro[4.4]non-1-en-3-yl)methyl)-[1,1′:3′,1″-terphenyl]-4′-carboxylic acid], in experiment [1], the “BRET β-Arrestin2 High AT1R Expression Ymax (%)” value is on record as 81.5% and the pEC50 was 7.19. Also, in experiment [2], the “IP-1 Ymax (%)” value is 3.1% and the pEC50 is 7.24. Moreover, in experiment [3], the pEC50 is 7.56 and the “DiscoveRx β-arrestin2 Ymax (%)” value is 36.3%.

Turning to `CCCCOC(=O)NS(=O)(=O)c1sc(-c2ccccc2)cc1-c1ccc(Cn2c(CC)nc3c(C)cc(C)nc32)cc1` [Example 49, Butyl (3-(4-((2-ethyl-5,7-dimethyl-3H-imidazo[4,5-b]pyridin-3-yl)methyl)phenyl)-5-phenylthiophen-2-yl)sulfonylcarbamate], in experiment [1], the “BRET β-Arrestin2 High AT1R Expression Ymax (%)” value is given as 78.3% and the negative-log EC50 (pEC50) is 7.95. In experiment [2], the “IP-1 Ymax (%)” value worked out at 4.2% and the pEC50 is 7.68. Also, in experiment [3], the negative logarithm of the EC50 (pEC50) was 7.96 and the “DiscoveRx β-arrestin2 Ymax (%)” value stood at 47.6%.

For `CCc1nc2c(C)cc(C)nc2n1Cc1ccc(-c2cc(N3CCCC(C)(C)C3)ccc2-c2nn[nH]n2)cc1` [Example 98, 3-((5′-(3,3-dimethylpiperidin-1-yl)-2′-(2H-tetrazol-5-yl)-[1,1′-biphenyl]-4-yl)methyl)-2-ethyl-5,7-dimethyl-3H-imidazo[4,5-b]pyridine], in experiment [1], the “BRET β-Arrestin2 High AT1R Expression Ymax (%)” value was found to be 86.6% and the pEC50 was 7.69. In experiment [2], the “IP-1 Ymax (%)” value is 6.6% and the pEC50 was 7.57. Besides, in experiment [3], the pEC50 was 7.73 and the “DiscoveRx β-arrestin2 Ymax (%)” value is 72.9%.

Regarding `CCCCC1=NC2(CCCC2)C(=O)N1Cc1ccc(-c2cc(-c3ccc(C(=O)NC)cc3)ccc2-c2nn[nH]n2)cc1` [Example 124], in experiment [1], the “BRET β-Arrestin2 High AT1R Expression Ymax (%)” value is reported as 32.6% and the negative logarithm of the EC50 (pEC50) was 6.86. Further, the negative logarithm of the EC50 (pEC50) in experiment [2] was under 4.00. In experiment [3], the pEC50 was 7.19 and the “DiscoveRx β-arrestin2 Ymax (%)” value is 28.1%.

Turning to `CCc1nc2c(C)cc(C)nc2n1Cc1ccc(-c2cc(-n3ccc4cc(F)ccc43)ccc2-c2nn[nH]n2)cc1` [Example 85], in experiment [1], the “BRET β-Arrestin2 High AT1R Expression Ymax (%)” value is given as 88.3% and the pEC50 was 7.98. Further, the pEC50 in experiment [2] is under 4.00. In experiment [3], the pEC50 was 7.74 and the “DiscoveRx β-arrestin2 Ymax (%)” value stood at 16.9%.

For `CCc1nc2c(C)cc(C)nc2n1Cc1ccc(-c2cc(-c3ccc(F)cc3F)ccc2-c2nn[nH]n2)cc1` [Example 54], in experiment [1], the “BRET β-Arrestin2 High AT1R Expression Ymax (%)” value turned out to be 89.7% and the pEC50 is 8.24. In experiment [2], the “IP-1 Ymax (%)” value was 7.0% and the pEC50 is 7.98. In experiment [3], the negative-log EC50 (pEC50) is 8.23 and the “DiscoveRx β-arrestin2 Ymax (%)” value turned out to be 39.5%.

These data come from patent publication US12037324B2, “Biarylmethyl heterocycles” (Université de Montréal, priority 2016, dated 2024).
